Assay results from patent US20070203212A1, “METHOD OF TREATING OSTEOARTHRITIS” (WARNER-LAMBERT COMPANY, priority 2002, published 2007).

Key:
[1] = tested on: monosodium iodoacetate (MIA)-induced osteoarthritis; test: MIA rat model, acute single oral dose: change in hind paw weight distribution (joint pain); assay type: in vivo; settings: for Day 7 2 hr. (% ± SEM) inhibition of MIA-induced change in hind paw weight distribution / Day 7 4 hr. (% ± SEM) inhibition of MIA-induced change in hind paw weight distribution / Day 14 2 hr. (% ± SEM) inhibition of MIA-induced change in hind paw weight distribution / Day 14 4 hr. (% ± SEM) inhibition of MIA-induced change in hind paw weight distribution / Day 7 6 hr. (% ± SEM) inhibition of MIA-induced change in hind paw weight distribution / Day 14 6 hr. (% ± SEM) inhibition of MIA-induced change in hind paw weight distribution: single oral dose 30 mg/kg; for Day 7 2 hr. (% ± SEM) inhibition of MIA-induced change in hind paw weight distribution: Day 7, 2 hours post dose; for Day 7 4 hr. (% ± SEM) inhibition of MIA-induced change in hind paw weight distribution: Day 7, 4 hours post dose; for Day 14 2 hr. (% ± SEM) inhibition of MIA-induced change in hind paw weight distribution: Day 14, 2 hours post dose; for Day 14 4 hr. (% ± SEM) inhibition of MIA-induced change in hind paw weight distribution: Day 14, 4 hours post dose; for Day 7 6 hr. (% ± SEM) inhibition of MIA-induced change in hind paw weight distribution: Day 7, 6 hours post dose; for Day 14 6 hr. (% ± SEM) inhibition of MIA-induced change in hind paw weight distribution: Day 14, 6 hours post dose
Experimental: (§1) It should be appreciated that in Biological Methods 1, 2, 4, and 5 below, hind paw weight bearing differentials between the paw of the limb having the control joint (in animals administered test compound vehicle only) and the paw of the limb having the contralateral test joint (in control or inducement animals administered test compound vehicle only and in treatment animals administered test compound dissolved in test compound vehicle) were determined using an incapacitance tester, model 2KG (Linton Instrumentation, Norfolk, United Kingdom). The incapacitance tester has a chamber on top with an outwardly sloping front wall that supports a rat's front limbs, and two weight sensing pads, one for each hind paw, that facilitates this determination. The hind paw weight bearing differentials were expressed in grams and calculated as follows: (the average weight in grams placed on the control limb minus the average weight in grams placed on the contralateral test limb for each of the inducement or treatment animals) minus (the average weight in grams placed on the control limb minus the average weight in grams placed on the contralateral test limb for each of the control animals). All results were statistically analyzed by comparing the average results for an induction or treatment group with the average result for its control group at the same time point using analysis of covariance (“ANCOVA”) followed by the Hoehberg's procedure and those with statistical significance had p<0.05 unless otherwise noted.
The rats were anesthetized with 5% volume/volume (“v/v”) isoflurane gas and maintained with 2% v/v isoflurane gas. The anesthetized rats were given a single intra-articular injection of 1 mg of MIA through the infrapatellar ligament of the right knee. MIA was dissolved in physiologic saline and administered in a volume of 50 μL. The contralateral control knee was injected with 50 μL of physiologic saline. Administration of isoflurane gas was discontinued, and the rats became fully conscious about 5 minutes later.
Shifts in hind paw weight distribution from the right to the left hind paws supporting the right (arthritic) and the left (contralateral control) hind leg knee joints were utilized as an index of joint pain and as a measure of compound efficacy. An incapacitance tester (Model 2KG, Linton Instrumentation, UK) was employed for determination of hind paw weight distribution. Each data point is the mean of three readings of 5 seconds duration.
CI-1027 (i.e., 6-(5-carboxy-5-methyl-hexyloxy)-2,2-dimethyl-hexanoic acid, calcium salt) was dissolved in hydroxypropylmethylcellulose (“HPMC”) vehicle (0.05% HPMC+0.2% Tween 80; compound amount was adjusted based on the percent of free acid, i.e., 6-(5-carboxy-5-methyl-hexyloxy)-2,2-dimethyl-hexanoic acid).
[…] Rats were then given a single, 10, 30, or 100 mg/kg, dose of CI-1027 via oral gavage (PO). Changes in hind paw weight distribution were determined 2, 4 and 6 hours post-compound administration.
6-(5-carboxy-5-methyl-hexyloxy)-2,2-dimethyl-hexanoic acid, calcium salt (“CI-1027”) and rofecoxib was tested in the rat MIA model in an acute dosing paradigm as described previously. MIA was injected into the right knee and saline into the left knee of all rats on Day 0. […] Two hours later, the rats were reassessed. The results for inhibition of pain, expressed as a percentage±standard error of the mean, are shown below in Table 5. The percent inhibition of pain was determined as described above in Biological Method 1. […] N=8 rats per group.

[2] = tested on: carrageenan-induced thermal hyperalgesia; test: Carrageenan-induced thermal hyperalgesia (CITH), paw withdrawal latency; assay type: in vivo, rat; settings: Day 1
Experimental: Male Sprague Dawley rats (200-300 g), obtained from Charles River, were housed in groups of 2 under a 12 hour light/dark cycle with food and water ad libitum. Animals were allowed to acclimate to the test room one hour prior to testing.
Thermal hyperalgesia was assessed using the rat plantar test (apparatus from Univ. California, San Diego) following a modified method of Hargreaves et al., 1988. Rats were habituated to the apparatus, which consisted of three perspex boxes that individually housed […] on an elevated glass table. A mobile radiant heat source (halogen lamp) was located under the glass table and focused onto the hind paw. Paw withdrawal latencies (PWL) were recorded in seconds (“s”). An automatic cut off point of 22.5 s was set to prevent tissue damage. The mean of 2-3 PWL was taken at each time point for both hind paws of each animal. The apparatus was calibrated to give a PWL of approximately 10 s before carrageenan administration.
After basal PWL were determined, animals receive an intraplantar 100 μL of 10 mg/mL) into the right hind paw. Lambda carrageenan (Sigma Chemical Co.) was dissolved in isotonic saline 5 minutes prior to injecting. PWL were reassessed following the same protocol 2 hours post carrageenan (this time point represented the start of peak hyperalgesia) to ascertain that hyperalgesia had developed. 6-(5-Carboxy-5-methyl-hexyloxy)-2,2-dimethyl-hexanoic acid, calcium salt was then administered orally via oral dosing needles 2.5 hours post carrageenan injection, and PWL were taken again at 30- or 60-minute intervals post drug administration for 6 hours.
Data consisted of the mean of 2-3 reads/paw for individual animals. Group data was the compiled individual means. Percent inhibition was calculated as follows for each time point: (mean drug treated−mean control)/(mean baseline−mean control)×100.

[3] = tested on: human recombinant IL-6/IL-6sR induced joint pain; test: IL-6 with IL-6 soluble receptor induced joint pain in rat; assay type: in vivo; settings: single oral dose 30 mg/kg
Experimental: as §1
Human recombinant IL-6 (100 ng per rat; R&D Systems, Minneapolis, Minn.) was incubated at room temperature with human recombinant IL-6 soluble receptor (300 ng per rat; R&D Systems, Minneapolis, Minn.) in phosphate buffered saline (“PBS”) for 15 minutes prior to injection. Rats were anesthetized with 5% volume/volume (“v/v”) isoflurane gas and maintained with 2% v/v isoflurane gas. The anesthetized rats were given a single intra-articular injection of IL-6/WL-6sR through the infrapatellar ligament of the right knee in a volume of 50 μL. The contralateral control knee was injected with 50 μL of PBS. Administration of isoflurane gas was discontinued, and the rats became fully conscious about 5 minutes later.
Shifts in hind paw weight distribution from the right (arthritic) to the left (contralateral control) paws were utilized as an index of joint pain and as a measure of compound efficacy. An incapacitance tester (Model 2KG, Linton Instrumentation, UK) was employed for determination of hind paw weight distribution. Each data point is the mean of three, 5-second readings.
CI-1027 was dissolved in BPMC vehicle as described above. Baseline changes in hind paw weight distribution readings were determined one day prior to injection of IL-6/IL-6sR. On the day of the experiment (Day 0), a single dose of CI-1027 (10, 30 or 100 mg/kg) was given via oral gavage 3 hours prior to injection of IL-6/IL-6sR (n=10 rats per group). Changes in hind paw weight distribution were determined one, three, and six hours after injection of IL-6/IL-6sR.
In Table 4 below, data from the method of Biological Method 5 are expressed as a percent inhibition of a change in hind paw weight distribution ± the standard error of the mean. The percents inhibition were calculated as follows. Percent inhibition of a change in hind paw weight distribution [formula] wherein: ΔWC is the hind-paw weight differential between the healthy limb and the hrIL-6+ hrIL-6sR injected limb of the control animal group administered vehicle alone, as measured at time 1, 3, or 6 hours post injection; and
ΔWG is the hind-paw weight differential between the healthy limb and the hrIL-6+ hrIL-6sR injected limb of a treatment animal group as measured at time 1, 3, or 6 hours post injection.

[4] = tested on: monoclonal antibody-induced arthritis; test: Monoclonal antibody-induced arthritis (MAIA) mouse model, footpad and ankle swelling; assay type: in vivo; parameters: footpad and ankle swelling: dose or concentration left out as unconfirmed; settings: BALB/c mice
Experimental: In a typical MAIA experiment, groups of four mice were injected intraperitoneally (“i.p.”) with 0.4 mL (BALB/c and DBA/1 strains) or 0.8 mL (C57BL/6, 129X1/SvJ, C3H/HeJ, and C3H/FeJ strains) with a 10 mg/mL solution of Arthrogen-CIA Monoclonal Antibody Blend (Chemicon International, Inc.). Two days later, the mice were injected i.p. with 0.2 mL of a 0.25 mg/mL solution of LPS (lipopolysaccharide form Escherichia coli (“E. coli”) strain 0111B4) in PBS. Footpad and ankle size was assessed using a Dyer Digital Caliper (#655-030-4916) on the day of mAb injection, and every two days following LPS injection.

Structure (SMILES) | Day 7 2 hr. (% ± SEM) inhibition of MIA-induced change in hind paw weight distribution [1] | Day 7 4 hr. (% ± SEM) inhibition of MIA-induced change in hind paw weight distribution [1] | Day 14 2 hr. (% ± SEM) inhibition of MIA-induced change in hind paw weight distribution [1] | Day 14 4 hr. (% ± SEM) inhibition of MIA-induced change in hind paw weight distribution [1] | CITH (%) percentage inhibition, paw withdrawal latency ([2]; single oral dose 30 mg/kg) | Day 7 6 hr. (% ± SEM) inhibition of MIA-induced change in hind paw weight distribution [1] | Day 14 6 hr. (% ± SEM) inhibition of MIA-induced change in hind paw weight distribution [1] | 1 hr. (% ± SEM) inhibition of (IL-6/IL-6sR)-induced change in hind paw weight distribution ([3]; Day 1, 1 hour post injection of IL-6/IL-6sR) | 3 hr. (% ± SEM) inhibition of (IL-6/IL-6sR)-induced change in hind paw weight distribution ([3]; Day 1, 3 hours post injection of IL-6/IL-6sR) | 6 hr. (% ± SEM) inhibition of (IL-6/IL-6sR)-induced change in hind paw weight distribution ([3]; Day 1, 6 hours post injection of IL-6/IL-6sR) | CITH (%) percentage inhibition, paw withdrawal latency ([2]; single oral dose 100 mg/kg) | Mean pain alleviation at 2 hours post administration (% ± SEM) ([1]; rofecoxib 3 mg/kg PO alone, Day 14) | footpad and ankle swelling [4]
CC(C)(CCCCCOCCCCCC(C)(C)C(=O)O)C(=O)O [A1, 7,7′-oxybis(2,2-dimethylheptanoic acid)] | 50 ± 11% | 15 ± 14% | −3 ± 15% | −9 ± 17% | 22% | – | – | – | – | – | – | – | –
CC(C)(CCCOCCCC(C)(C)C(=O)O)C(=O)O [A2, 5,5′-oxybis(2,2-dimethylpentanoic acid)] | −11 ± 15^ % | 16 ± 15% | 9 ± 13% | 9 ± 20% | −3% | – | – | – | – | – | – | – | –
CC(C)(CCOCCC(C)(C)C(=O)O)C(=O)O [A3, 4,4′-oxybis(2,2-dimethylbutanoic acid)] | 20 ± 4% | 34 ± 5% | 33 ± 7% | 36 ± 3% | 20% | 81 ± 6% | 27 ± 9% | – | – | – | – | – | –
CC(C)(CCCCCCCCCC(C)(C)C(=O)O)C(=O)O [A4, 2,2,12,12-tetramethyltridecanedioic acid] | 25 ± 5% | 38 ± 7% | 35 ± 6% | 29 ± 8% | 118% | 43 ± 6% | 55 ± 7% | 70 ± 9% | 79 ± 5% | 26 ± 6% | 115% | – | –
CS(=O)(=O)c1ccc(C2=C(c3ccccc3)C(=O)OC2)cc1 [Rofecoxib, reference compound] | – | – | – | – | – | – | – | – | – | – | – | 23 ± 7% | –
CN(Cc1cnc2nc(N)nc(N)c2n1)c1ccc(C(=O)N[C@@H](CCC(=O)O)C(=O)O)cc1 [methotrexate, N-[4-[[(2,4-diamino-6-pteridinyl)methyl]methylamino]benzoyl]-L-glutamic acid, reference compound] | – | – | – | – | – | – | – | – | – | – | – | – | significantly inhibit footpad and ankle swelling
